Results published in PubChem BioAssay (NCI).
Where “and” joins values, the source holds several entries; their conditions need not be identical. Identical values can stand only once.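 Test compounds were applied to cells in 96-well plates for 48 hours at 5 doses. Here, GI50 denotes the concentration required for 50% inhibition of growth. Definition used: TGI = concentration required for complete inhibition of growth.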

Assays:
Experiment in all cases: inhibition of tumour cell growth, NCI panel, 48 h
SNB-75 CNS = system: SNB-75 CNS
SNB-19 CNS = system: SNB-19 CNS
MALME-3M melanoma = system: MALME-3M melanoma
OVCAR-3 ovarian = system: OVCAR-3 ovarian
RPMI-8226 leukemia = system: RPMI-8226 leukemia
ACHN renal = system: ACHN renal
HOP-92 NSCLC = system: HOP-92 NSCLC
SF-539 CNS = system: SF-539 CNS
KM12 colon = system: KM12 colon
NCI/ADR-RES ovarian = system: NCI/ADR-RES ovarian

SMILES | TGI (SNB-75 CNS) | TGI (SNB-19 CNS) | TGI (MALME-3M melanoma) | TGI (OVCAR-3 ovarian) | TGI (RPMI-8226 leukemia) | TGI (ACHN renal) | TGI (HOP-92 NSCLC) | TGI (SF-539 CNS) | TGI (KM12 colon) | TGI (NCI/ADR-RES ovarian) | GI50 (SNB-75 CNS) | GI50 (SNB-19 CNS) | GI50 (OVCAR-3 ovarian) | GI50 (RPMI-8226 leukemia) | GI50 (ACHN renal) | GI50 (HOP-92 NSCLC) | GI50 (SF-539 CNS) | GI50 (KM12 colon) | GI50 (NCI/ADR-RES ovarian) | GI50 (MALME-3M melanoma)
COc1c2occc2c(N)c2ccc(=O)oc12 | 69.1 µM | > 100 µM | > 100 µM | > 100 µM | > 100 µM | > 100 µM | > 100 µM | > 100 µM | > 100 µM | > 100 µM |  |  |  |  |  |  |  |  |  | 
O=c1[nH]c(O)c(C=Nc2ccc(-c3nc4ccccc4o3)cc2)c(=O)[nH]1 | > 100 µM | > 100 µM |  | 57.4 µM | > 100 µM | > 100 µM | > 100 µM | 62.7 µM | > 100 µM | 9.59 µM | > 100 µM | > 100 µM | 15.6 µM | 27.5 µM | > 100 µM | > 100 µM | 27.4 µM | 31.3 µM | 3.56 µM | 
COc1cc2c(cc1OCCCN1CCN(CCCOc3cc4c(cc3OC)C(=O)N3CC(F)(F)C[C@H]3C=N4)CC1)N=C[C@@H]1CC(F)(F)CN1C2=O | 21.1 µM | 17.5 µM | 6.34 µM | 10.6 µM | 7.73 µM | 19.7 µM | 76.3 µM | 9.15 µM | 17.5 µM | 72.9 µM | 5.52 µM | 4.08 µM | 3.55 µM | 2.2 µM | 5.64 µM | 6.14 µM | 3.05 µM | 4.1 µM | 25.2 µM | 2.8 µM
Nc1c(C(=O)Nc2ccccn2)sc2nc3c(cc12)C(=O)CCC3 | 22.2 µM | > 100 µM | > 100 µM | 14.7 µM | > 100 µM | > 100 µM | > 100 µM | 5.65 µM | > 100 µM | > 100 µM | 0.646 µM | 1.3 µM | 0.792 µM | 3.24 µM | 6.06 µM | 27.7 µM | 1.17 µM | 0.762 µM | 0.929 µM | 13.1 µM
C=C(C)C(C1C=C(CCC(C=O)=C(C)C)C(=O)O1)C1(OC)C=C(C)C(=O)O1 (stereo unspecified) | > 100 µM | > 100 µM | > 100 µM | > 100 µM | > 100 µM | > 100 µM | > 100 µM | > 100 µM | > 100 µM | > 100 µM | > 100 µM | > 100 µM | > 100 µM | > 100 µM | > 100 µM | > 100 µM | > 100 µM | > 100 µM | > 100 µM | > 100 µM
Nc1nc(Cl)nc2c1ncn2C1CC(O)C(CO)O1 (stereo unspecified) | > 91.9 µM | > 100 µM | > 100 µM | > 100 µM | > 100 µM | > 100 µM | 24.2 µM | 76.8 µM | > 100 µM | > 100 µM |  |  |  |  | 0.562 µM |  |  |  |  | 
CNCCCNc1ccnc2cc(Cl)ccc12 | 82 µM | > 100 µM | 40.5 µM | 95.5 µM | 55.7 µM | 61.3 µM | 39.1 µM | 33.1 µM | 67.6 µM | > 100 µM | 16.4 µM | 36.1 µM | 27.6 µM | 20 µM | 19 µM | 9.51 µM | 17 µM | 19.4 µM | 34.4 µM | 19.7 µM
CCn1cc(-c2ccnc3[nH]c(-c4cccc(CN(C)C)c4)cc23)c(-c2ccc(NC(=O)N(C)C)cc2)n1 | 2.38 µM and 3.42 µM | 45 µM and > 10 µM | 29.3 µM and > 10 µM | 23.9 µM and > 10 µM | 15.6 µM and > 10 µM | 10.2 µM and > 10 µM | 5.2 µM and 2.99 µM | 13.3 µM and > 10 µM | 13.5 µM and > 10 µM | > 100 µM | 0.217 µM and 0.461 µM | 10 µM and > 10 µM | 3.82 µM and 3.15 µM | 1.69 µM and 1.32 µM | 1.73 µM and 2.45 µM | 0.338 µM and 0.294 µM | 0.418 µM and 1.38 µM | 1.06 µM and 1.62 µM | 23.4 µM and > 10 µM | 12 µM and > 10 µM
CCN(CCNS(C)(=O)=O)c1ccc(N)c(C)c1 | 37.8 µM | 33.8 µM | 24.4 µM | 8.58 µM | 8.32 µM | 4.9 µM | 16.3 µM | 21.6 µM | 26.9 µM | 40.9 µM | 18.8 µM | 17.7 µM | 3.15 µM | 3.16 µM | 2.09 µM | 4.13 µM | 9.08 µM | 13.1 µM | 11.8 µM | 10.2 µM
O=c1cccc(C#CC#C[C@@H]2O[C@H]2CO)o1 | 4.07 µM | 12 µM |  | 3.69 µM | 5.49 µM | 2.08 µM | 3.34 µM | 3.68 µM | 7.47 µM | 4.53 µM | 0.434 µM | 3.36 µM | 2.06 µM | 1.7 µM | 0.845 µM | 1.06 µM | 1.91 µM | 2.06 µM | 1.24 µM | 
CN(C)CCN1CCC(Cc2ccccc2)CC1 | > 80 µM | > 80 µM | > 80 µM | > 80 µM | > 80 µM | > 80 µM | > 80 µM | > 80 µM | > 80 µM | > 80 µM | > 80 µM | > 80 µM | > 80 µM | > 80 µM | > 80 µM | 41.4 µM | > 80 µM | > 80 µM | > 80 µM | > 80 µM
O=[N+]([O-])c1cccnc1N=Nc1c(O)[nH]c2ccccc12 | 44.3 µM | 58.5 µM | 56.3 µM | > 100 µM | 79.2 µM | 36 µM | > 100 µM | 12.7 µM | 25.6 µM | > 100 µM |  |  |  |  |  |  |  |  |  | 
CCN(Cc1c(F)cccc1OC)c1ccc(CO)c(Cl)c1 | 46.2 µM | > 100 µM | 31.7 µM | 1.81 µM | 23.1 µM | 44.6 µM | 10 µM | 33.1 µM | 49.8 µM | 43.1 µM | 14.5 µM | 24.2 µM | 0.253 µM | 1.44 µM | 16.8 µM | 0.933 µM | 16.6 µM | 15.9 µM | 13.3 µM | 14 µM
COC(=O)c1c(C)cc(OC)c(C/C=C(\C)CCCc2coc(C=C(C)C)c2)c1OC | > 100 µM | > 100 µM |  | > 100 µM | > 100 µM | > 100 µM | > 100 µM | > 100 µM | > 100 µM | > 100 µM |  |  |  |  |  |  |  |  |  | 
